In ChEMBL document CHEMBL1123897, “Nucleosides. 146. 1-Methyl-5-(2-deoxy-2-fluoro-beta-D-arabinofuranosyl)uracil, the C-nucleoside isostere of the potent antiviral agent 1-(2-deoxy-2-fluoro-beta-D-arabinofuranosyl)thymine (FMAU). Studies directed toward the synthesis of 2'-deoxy-2'-substituted arabino nucleosides. 6” (1987):

What was measured:
Type in all cases: functional
Conditions in all cases: read-out: ED50 (the source's name)
Homo sapiens [1] = organism: Homo sapiens; assay: In vitro inhibitory activity against Herpes simplex virus-1(HSV-1) was determined in human foreskin fibroblasts
Homo sapiens [2] = organism: Homo sapiens; assay: In vitro inhibitory activity against Herpes simplex […] was determined in human foreskin fibroblasts
Homo sapiens [3] = organism: Homo sapiens; assay: In vitro inhibitory activity against Varicella zoster virus(VZV) was determined in human foreskin fibroblasts

Structure (SMILES)	EC50 (Homo sapiens [1])	EC50 (Homo sapiens [2])	EC50 (Homo sapiens [3])
Cn1cc([C@@H]2O[C@H](CO)[C@@H](O)[C@@H]2F)c(=O)[nH]c1=O	8.5 µM	23 µM	6.4 µM
Cc1cn([C@@H]2O[C@H](CO)[C@@H](O)[C@@H]2F)c(=O)[nH]c1=O [5-METHYL-2'-FLUOROARAURACIL]	0.06 µM	0.13 µM	0.02 µM
